According to PubChem BioAssay AID330 (DTP/NCI, 2004):
Values joined by “and” are separate entries in the source; they are usually repeats but may differ in a detail not shown here. Equal entries are not always repeated. Toxic doses and inconclusive results are not listed. The calls were made as follows: active = survival T/C of 150% or more; inactive = T/C below 125% in these data. Square brackets hold non-standard residues; d marks the D form. Peptide text beside a SMILES is read from it. ξ: configuration not given here. ξD = NC(CC(=O)O)C(=O)O

Tested on: P388 leukemia ip, CD2F1 mice, survival T/C
Test: NCI In Vivo Anticancer Drug Screen. Data for tumor model P388 Leukemia (intraperitoneal) in CD2F1 (CDF1) mice
Conditions: endpoint: median survival time, higher = longer survival
Summary of the method: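 Mice carrying the transplanted tumor received test compound or vehicle. Survival was recorded in each group, and the value is the treated-group measurement divided by that of the vehicle-treated control group.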

[1] = dose: 60.0 mg/kg/injection, schedule: Q01DX005 (ip), vehicle: Klucel (hydroxypropylcellulose) (HPC)
[2] = dose: 120.0 mg/kg/injection, schedule: Q01DX005 (ip), vehicle: Klucel (hydroxypropylcellulose) (HPC)
[3] = dose: 240.0 mg/kg/injection, schedule: Q01DX005 (ip), vehicle: Klucel (hydroxypropylcellulose) (HPC)
[4] = dose: 6.25 mg/kg/injection, schedule: Q01DX009 (ip), vehicle: saline
[5] = dose: 50.0 mg/kg/injection, schedule: Q04DX003 (ip), vehicle: saline
[6] = dose: 50.0 mg/kg/injection, schedule: Q01DX005 (ip), vehicle: Klucel (hydroxypropylcellulose) (HPC)
[7] = dose: 100.0 mg/kg/injection, schedule: Q01DX005 (ip), vehicle: Klucel (hydroxypropylcellulose) (HPC)
[8] = dose: 200.0 mg/kg/injection, schedule: Q01DX005 (ip), vehicle: Klucel (hydroxypropylcellulose) (HPC)
[9] = dose: 25.0 mg/kg/injection, schedule: Q01DX005 (ip), vehicle: Klucel (hydroxypropylcellulose) (HPC)
[10] = dose: 50.0 mg/kg/injection, schedule: Q01DX005 (ip), vehicle: saline
[11] = dose: 60.0 mg/kg/injection, schedule: Q01DX005 (ip), vehicle: saline
[12] = dose: 120.0 mg/kg/injection, schedule: Q01DX005 (ip), vehicle: saline
[13] = dose: 240.0 mg/kg/injection, schedule: Q01DX005 (ip), vehicle: saline

Measured: T/C

O=C1Nc2ccccc2C1=Nc1cccc2cnccc12
inactive: [1] 100 % of control | [2] 95 % of control | [3] 98 % of control

OCCN1CCN(CC/C=C2\c3ccccc3Sc3ccc(Cl)cc32)CC1
inactive: dose: 3.13 mg/kg/injection, schedule: Q01DX009 (ip), vehicle: saline 102 % of control | [4] 113 % of control | dose: 11.0 mg/kg/injection, schedule: Q01DX009 (ip), vehicle: saline with Tween-80 109 % of control | [5] 88 % of control

CC(=O)Nc1scc[n+]1Cc1ccccc1
inactive: [6] 100 % of control | [7] 100 % of control | [8] 91 % of control

CN(C)C(=O)Sc1nnc(C(C)(C)C)o1
inactive: [9] 100 % of control | [6] 106 % of control | [7] 106 % of control

O=[N+]([O-])c1ccc(N/N=C\c2cccc3c(/C=N/Nc4ccc([N+](=O)[O-])cc4[N+](=O)[O-])c(Cl)n(-c4ccccc4)c23)c([N+](=O)[O-])c1
inactive: dose: 25.0 mg/kg/injection, schedule: Q01DX001 (ip), vehicle: Klucel (hydroxypropylcellulose) (HPC) 102 % of control | dose: 50.0 mg/kg/injection, schedule: Q01DX001 (ip), vehicle: Klucel (hydroxypropylcellulose) (HPC) 95 % of control | dose: 100.0 mg/kg/injection, schedule: Q01DX001 (ip), vehicle: Klucel (hydroxypropylcellulose) (HPC) 93 % of control

O=C1C(=O)c2ccccc2C(O)=C1CCCc1ccc(C2CCCCC2)cc1
inactive: dose: 3.12 mg/kg/injection, schedule: Q01DX009 (ip), vehicle: saline with Tween-80 112 % of control | dose: 6.25 mg/kg/injection, schedule: Q01DX009 (ip), vehicle: saline with Tween-80 101 % of control | dose: 12.5 mg/kg/injection, schedule: Q01DX009 (ip), vehicle: saline with Tween-80 94 % of control | dose: 25.0 mg/kg/injection, schedule: Q01DX009 (ip), vehicle: saline with Tween-80 101 % of control | dose: 50.0 mg/kg/injection, schedule: Q01DX009 (ip), vehicle: saline with Tween-80 94 % of control | dose: 100.0 mg/kg/injection, schedule: Q01DX009 (ip), vehicle: saline with Tween-80 93 % of control | dose: 200.0 mg/kg/injection, schedule: Q01DX009 (ip), vehicle: saline with Tween-80 104 % of control

COC(CC[S+](C)C)C(=O)O (stereo not drawn)
inactive: dose: 32.0 mg/kg/injection, schedule: Q01DX005 (ip), vehicle: water 105 % of control | dose: 64.0 mg/kg/injection, schedule: Q01DX005 (ip), vehicle: water 97 % of control | dose: 128.0 mg/kg/injection, schedule: Q01DX005 (ip), vehicle: water 102 % of control | dose: 256.0 mg/kg/injection, schedule: Q01DX005 (ip), vehicle: water 101 % of control

O=C1C2C3CCC(O3)C2C(=O)N1SC(Cl)(Cl)Cl (stereo not drawn)
inactive: dose: 3.12 mg/kg/injection, schedule: Q01DX009 (ip), vehicle: saline 101 % of control | [4] 108 % of control | dose: 12.5 mg/kg/injection, schedule: Q01DX009 (ip), vehicle: saline 100 % of control

CN1CCC(CC2CCCCN2)CC1 (stereo not drawn)
inactive: dose: 6.25 mg/kg/injection, schedule: Q01DX009 (ip), vehicle: distilled water + Tween-80 99 % of control | dose: 12.5 mg/kg/injection, schedule: Q01DX009 (ip), vehicle: distilled water + Tween-80 105 % of control and 95 % of control | dose: 25.0 mg/kg/injection, schedule: Q01DX009 (ip), vehicle: distilled water + Tween-80 98 % of control and 122 % of control | dose: 50.0 mg/kg/injection, schedule: Q01DX009 (ip), vehicle: distilled water + Tween-80 108 % of control and 116 % of control | dose: 100.0 mg/kg/injection, schedule: Q01DX009 (ip), vehicle: distilled water + Tween-80 103 % of control

CCN(CC)CCCNC(=O)C(c1ccccc1)c1ccccc1
inactive: dose: 12.5 mg/kg/injection, schedule: Q01DX005 (ip), vehicle: saline 100 % of control | dose: 25.0 mg/kg/injection, schedule: Q01DX005 (ip), vehicle: saline 115 % of control | [10] 100 % of control and 92 % of control

CCOC(=O)c1cn(C2OC(CO)C(O)C2O)c(=O)nc1N (stereo not drawn)
inactive: [5] 99 % of control | dose: 100.0 mg/kg/injection, schedule: Q04DX003 (ip), vehicle: saline 100 % of control | dose: 200.0 mg/kg/injection, schedule: Q04DX003 (ip), vehicle: saline 100 % of control | dose: 400.0 mg/kg/injection, schedule: Q04DX003 (ip), vehicle: saline 102 % of control

COC(=O)C1CCC(=O)N1Cc1csc(-c2ccccc2)n1 (stereo not drawn)
inactive: dose: 60.0 mg/kg/injection, schedule: Q01DX005 (ip), vehicle: saline with Tween-80 106 % of control | dose: 120.0 mg/kg/injection, schedule: Q01DX005 (ip), vehicle: saline with Tween-80 100 % of control | dose: 240.0 mg/kg/injection, schedule: Q01DX005 (ip), vehicle: saline with Tween-80 106 % of control

Cc1ccc(I)c(C(O)(C(F)(F)F)C(F)(F)F)c1
inactive: dose: 50.0 mg/kg/injection, schedule: Q01DX009 (ip), vehicle: Klucel (hydroxypropylcellulose) (HPC) 97 % of control | dose: 100.0 mg/kg/injection, schedule: Q01DX009 (ip), vehicle: Klucel (hydroxypropylcellulose) (HPC) 91 % of control

C/C(=N\NC(=S)N1CCCCCC1)c1nccnc1C
inactive: [9] 112 % of control | [6] 122 % of control

NS(=O)(=O)Oc1ccccc1C(=O)Oc1ccccc1Cl
inactive: [1] 99 % of control | [2] 99 % of control | [3] 94 % of control

CCCNC(=O)CCC(NS(=O)(=O)c1ccc(C)cc1)C(=O)O (stereo not drawn)
inactive: [6] 100 % of control | [7] 100 % of control | [8] 98 % of control

NCC(=O)NC(CC(=O)O)C(=O)O (stereo not drawn) (H-Gly-[ξD]-OH)
inactive: dose: 100.0 mg/kg/injection, schedule: Q04DX003 (ip), vehicle: saline with Tween-80 100 % of control | dose: 200.0 mg/kg/injection, schedule: Q04DX003 (ip), vehicle: saline with Tween-80 93 % of control | dose: 400.0 mg/kg/injection, schedule: Q04DX003 (ip), vehicle: saline with Tween-80 94 % of control

O=C(O)C(Cc1c[nH]c2ccc(O)cc12)NCC1(O)OCC(O)C(O)C1O (stereo not drawn)
inactive: [11] 97 % of control | [12] 99 % of control | [13] 98 % of control

O=c1c(N=Nc2nc3ccc([N+](=O)[O-])cc3s2)c(O)n(-c2ccccc2)c(=S)n1-c1ccccc1
inactive: [11] 96 % of control | [12] 96 % of control | [13] 92 % of control

CC(C)(C)C1C=Nn2c(=O)n(-c3ccccc3)c(=O)n21 (stereo not drawn)
inactive: dose: 25.0 mg/kg/injection, schedule: Q04DX003 (ip), vehicle: other 91 % of control | dose: 100.0 mg/kg/injection, schedule: Q04DX003 (ip), vehicle: other 94 % of control | dose: 200.0 mg/kg/injection, schedule: Q04DX003 (ip), vehicle: other 98 % of control | dose: 400.0 mg/kg/injection, schedule: Q04DX003 (ip), vehicle: other 100 % of control

CCOC(=O)CN1CN(CCCN(C)C)CC(C)(C)C1OCC (stereo not drawn)
inactive: dose: 15.0 mg/kg/injection, schedule: Q01DX009 (ip), vehicle: saline with Tween-80 108 % of control | dose: 30.0 mg/kg/injection, schedule: Q01DX009 (ip), vehicle: saline with Tween-80 98 % of control | dose: 60.0 mg/kg/injection, schedule: Q01DX009 (ip), vehicle: saline with Tween-80 99 % of control

CC/C(=N\NC(N)=NC)c1ccc(Cl)cc1
inactive: dose: 25.0 mg/kg/injection, schedule: Q04DX002 (ip), vehicle: saline 101 % of control

CCN(CC)CCN1C(=O)CCC1=O
inactive: [10] 100 % of control | dose: 100.0 mg/kg/injection, schedule: Q01DX005 (ip), vehicle: saline 109 % of control | dose: 200.0 mg/kg/injection, schedule: Q01DX005 (ip), vehicle: saline 104 % of control

COC1=C(OC)C(=O)C2=C(OCCO2)C1=O
inactive: dose: 25.0 mg/kg/injection, schedule: Q01DX001 (ip), vehicle: saline with Tween-80 109 % of control | dose: 50.0 mg/kg/injection, schedule: Q01DX001 (ip), vehicle: saline with Tween-80 106 % of control | dose: 100.0 mg/kg/injection, schedule: Q01DX001 (ip), vehicle: saline with Tween-80 107 % of control
